# Data from patent US11311568B2, “Therapeutic pharmaceutical composition for cancer including miRNA” (Purmx Therapeutics, Inc., priority 2017, dated 2022).
# Experiments:
# [1] = system: tongue cancer cell strain HSC-4; assay: Screening in cancer cell strains, cell survival rate with PrestoBlue; assay type: cell-based; conditions: HSC-4, Day 5 after transfection with RNAiMAX, compared with miR-34a-5p
# Protocol: The 349 types of aging induction miRNA (mirVana; Ambion) obtained from screening were transfected into various cancer cell strains (large intestine cancer cell strain HCT116 (p53 wildtype and p53 deletion), pancreatic cancer cell strains BxPC-3 and CFPAC-1, and tongue cancer cell strain HSC-4) with an auto dispenser Bravo (Agilent).
# Transfection was carried out with the following protocol.
# 1: To 70 μL of serum free medium (SFM) was added 0.35 μL of RNAiMAX (Invitrogen).
# 2: The solution from 1 was added to a 96-well plate (μ-plate; ibidi) with Bravo.
# 3: To 2 was added 0.7 μL of miRNA (Stock Conc. 200 nM) with Bravo, and this was mixed by pipetting.
# 4: This was incubated at room temperature for 20 minutes.
# 5: A cell suspension diluted to 3.5×10^4 cells/mL was dispensed at 70 μL each with Bravo.
# 6: This was incubated at 37° C. under 5% CO2 condition.
# Setting the day of transfection as Day 0, on Day 5 the cell survival rate was evaluated with PrestoBlue (Invitrogen). The operating protocol is shown below.
# 1. The medium was exchanged to a medium comprising PrestoBlue diluted 20-folds, and this was incubated at 37° C. for 1 hour. 2. The fluorescence value (Ex/Em=560 nm/590 nm) was measured with Enspire (Perkin Elmer).
# 3. The cell survival rate was determined by setting the fluorescence value obtained from the well with only the reagent as the background.
# [2] = system: malignant pleural mesothelioma cell strain EHMES-10; assay: Cell growth inhibition, cell count after transfection; assay type: cell-based; conditions: EHMES-10, final concentration 10 nM, four days after transfection, FIG. 7
# Protocol: (§1) Among the above four miRNAs, miR-3140-3p which had particularly high cell growth inhibition effect was transfected in each of malignant pleural mesothelioma cell strains (MSTO-211H and EHMES-10), uterine sarcoma cell strain (MES-SA), and osteosarcoma cell strain (U2-OS), and cell proliferation was observed. […] Transfection was carried out with the following protocol.
# (§2) 1: To a 35 mm dish were added 500 μL of serum free medium (SFM) and 5 μL of RNAiMAX (Invitrogen).
# (§3) 2: To the solution from 1 was added 1 μL each of miR-Control or miR-3140-3p, miR-22-3p, and miR-34a-5p (stock conc. 20 μM) (final concentration 10 nM).
# (§4) 3: This was incubated at room temperature for 20 minutes.
# (§5) 4: 1.5 mL of a cell suspension diluted to 6.7×10^4 cells/mL was added to the 35 mm dish.
# (§6) 5: This was incubated at 37° C. under 5% CO2 condition.
# (§7) 6: The cells were counted four days after transfection.
# [3] = system: malignant pleural mesothelioma cell strain MSTO-211H; assay: as above; assay type: cell-based; conditions: final concentration 10 nM, four days after transfection, FIG. 6
# Protocol: as §1, §2, §3, §4, §5, §6, §7
# [4] = system: osteosarcoma cell strain U2-OS; assay: as above; assay type: cell-based; conditions: final concentration 10 nM, four days after transfection, FIG. 9
# Protocol: as §1, §2, §3, §4, §5, §6, §7
# [5] = system: uterine sarcoma cell strain MES-SA; assay: as above; assay type: cell-based; conditions: final concentration 10 nM, four days after transfection, FIG. 8
# Protocol: as §1, §2, §3, §4, §5, §6, §7
# [6] = system: breast cancer stem cell strain (MDA-MB231-luc-D3H2LN cells); assay: as above; assay type: cell-based; conditions: final concentration 12.5 nM, four days after transfection, FIG. 10 top
# Protocol: miR-3140-3p was transfected in a highly metastatic cancer cell strain of breast cancer (MDA-MB231-luc-D3H2LN cells), and cell proliferation was observed. […] Transfection was carried out with the following protocol.
# as §2
# 2: To the solution from 1 was added 12.5 μL each of miR-Control or miR-3140-3p, miR-22-3p, and miR-34a-5p (stock conc. 2 μM) (final concentration 12.5 nM).
# as §4, §5, §6, §7
# [7] = system: malignant pleural mesothelioma cells MSTO-211H; assay: Antitumor effect in vivo, subcutaneous transplantation of MSTO-211H cells; design: species or system SCID mouse; conditions: SCID mice, MSTO-211H subcutaneous, miRNA with A6K at tumor site, 13 administrations, 34 days after transplantation, FIG. 13
# Protocol: In order to verify the antitumor effect of the miRNA of the present invention in vivo, experiments was performed with laboratory animals transplanted with malignant pleural mesothelioma cells.
# Malignant pleural mesothelioma cells MSTO-211H cells were used.
# 1: The cells on the dish were washed twice with PBS (-).
# 2: The cells were detached with trypsin.
# 3: This was suspended in a medium, and cells were counted.
# 4: Centrifugation at a condition of 1000 rpm for 3 min was performed to pellet down.
# 5: The cells were resuspended in PBS (-) in order to obtain 2.0×10^7 cells/mL.
# Six weeks-old C-B-17/Icr-scid/scid Jcl (SCID mouse) were used as mice. SCID mice were subcutaneously administered 100 μL of the prepared cell suspension, and the cells were allowed to settle.
# Negative control which is the control sequence and miR-3140-3p which is the miRNA of the present invention were employed. A6K (from 3D Matrix) was employed as the nucleic acid delivery reagent. The administration of miRNA to mice was carried out with the following protocol.
# 1: 100 μM of the nucleic acid (miRNA) was diluted with 10% saline and sterilized water in order to obtain 71.4 μM.
# 2: 1% A6K solution was sonicated for 5 minutes before use.
# 3: The diluted nucleic acid and the 1% A6K solution were mixed at a proportion of 1:1 to give the administration nucleic acid. […]
# [8] = system: malignant pleural mesothelioma cell EHMES-10; assay: Calculation of IC50 value, cell survival with Cell Counting Kit 8; assay type: cell-based; conditions: five days after transfection
# Protocol: The IC50 value of miR-3140-3p was calculated with malignant pleural mesothelioma cell EHMES-10.
# The protocol therefor is shown below.
# 1: To 25 μL of serum free medium (SFM) was added 0.25 μL of RNAiMAX (Invitrogen).
# 2: miR-Control and miR-3140-3p were serially diluted so that the final concentrations will be 40 nM, 20 nM, 10 nM, 5 nM, 1 nM, 500 pM, 100 pM, 50 pM, 10 pM, 5 pM, and 1 pM, and mixed with SFM/RNAiMAX complex.
# as §4
# 4: 75 μL of each of cells at 6.7×10^4 cells/mL were added to each well.
# as §6
# 6: Five days after transfection, the survival rates of cells were investigated with Cell Counting Kit 8 (DOJINDO). The protocol therefor is shown below.
# (i) Cell Counting Kit was diluted 10-folds with a medium.
# (ii) 200 μL of each of the diluted Cell Counting Kit was added to each well.
# (iii) This was incubated at 37° C. under 5% CO2 condition for 1 hour.
# (iv) The values at 450 nm/600 nm were measured with a plate reader.
# Note that the same control RNA as that used in Experiment 7 was employed as the control.
substance,measurement,setting,value
"miR-3140-3p: Mature-miRNA, AGCUUUUGGGAAUUCAGGUAGU (SEQ ID NO. 2) (listed as RNA, chemistry not given here; listed as Homo sapiens)","suppression of cell proliferation (cell survival rate, PrestoBlue)",[1],suppress cell proliferation more significantly than miR-34-5p
same,cell growth inhibition effect (cell count),[2],extremely high cell growth inhibition effect compared to prior art miR-22-3p and miR-34a-5p
same,cell growth inhibition effect (cell count),[3],extremely high cell growth inhibition effect compared to prior art miR-22-3p and miR-34a-5p
same,cell growth inhibition effect (cell count),[4],extremely high cell growth inhibition effect compared to prior art miR-22-3p and miR-34a-5p
same,cell growth inhibition effect (cell count),[5],extremely high cell growth inhibition effect compared to prior art miR-22-3p and miR-34a-5p
same,cell growth inhibition effect (cell count),[6],extremely high cell growth inhibition effect
same,tumor weight at endpoint compared to the control group,[7],significantly lower
same,"growth inhibition effect (survival rates of cells, Cell Counting Kit 8)","[8]; EHMES-10, 1 pM to 40 nM, FIG. 29",growth inhibition effect against malignant pleural mesothelioma cell strain EHMES-10 even at a very low concentration
same,IC50,"[8]; EHMES-10, final concentration, Cell Counting Kit 8",570 pM
